Assay results: ChEMBL document CHEMBL5584252, “Stereochemical inversion at a 1,4-cyclohexyl PROTAC linker fine-tunes conformation and binding affinity” (Bioorg Med Chem Lett, 2024)
pKd: −log10 of the molar value.

Key:
[1] = target: T1, Von Hippel-Lindau disease tumor suppressor/Elongin B/Elongin C (Homo sapiens) (UniProt P40337+Q15370+Q15369); assay: Binding affinity to VHL/Elongin C/Elogin B (unknown origin) assessed as change in entropy at 20 uM by ITC analysis; type: protein-complex assay
[2] = target: T1, Von Hippel-Lindau disease tumor suppressor/Elongin B/Elongin C (Homo sapiens); assay: Binding affinity to VHL/Elongin C/Elogin B (unknown origin) assessed as change in gibbs free energy at 20 uM by ITC analysis; type: protein-complex assay
[3] = target: T2, Von Hippel-Lindau disease tumor suppressor/Elongin B/Elongin C (Homo sapiens, UniProt P40337); assay: Binding affinity to VHL/Elongin C/Elogin B (unknown origin) assessed as dissociation constant at 20 uM by ITC analysis; type: protein-complex assay
[4] = target: T2, Von Hippel-Lindau disease tumor suppressor/Elongin B/Elongin C; assay: Displacement of JC-9 probe from recombinant VHL/Elongin C/Elogin B (unknown origin) using FAM-DEALA-Hyp-YIPMDDDFQLRSF as substrate assessed as dissociation constant by competitive fluorescence polarization assay; type: protein-complex assay
[5] = target: T1, Von Hippel-Lindau disease tumor suppressor/Elongin B/Elongin C (Homo sapiens); assay: Binding affinity to VHL/Elongin C/Elogin B (unknown origin) assessed as change in enthalpy at 20 uM by ITC analysis; type: protein-complex assay
HEK293 = assay: Binding affinity to C-terminal NanoLuc fused human LRRK2/VHL-elongin-B-elongin C (unknown origin) complex expressed in HEK293 cells assessed as ternary complex formation by measuring cooperativity factor by NanoBRET based assay; type: cell-based
[6] = target: T2, Von Hippel-Lindau disease tumor suppressor/Elongin B/Elongin C; assay: Binding affinity to VHL/Elongin C/Elogin B (unknown origin) using FAM-DEALA-Hyp-YIPMDDDFQLRSF as substrate assessed as dissociation constant by fluorescence polarization assay; type: protein-complex assay
[7] = target: T3, von Hippel-Lindau disease tumor suppressor/Leucine-rich repeat serine/threonine-protein kinase 2 (Mus musculus) (UniProt Q5S006+P40338); assay: PROTAC activity at VHL/wildtype LRRK2 in MEF cells assessed as induction of LRRK2 degradation by measuring maximal efficacy at 300 nM incubated for 48 hrs by Western blot analysis relative to control; type: cell-based
[8] = target: T3, von Hippel-Lindau disease tumor suppressor/Leucine-rich repeat serine/threonine-protein kinase 2 (Mus musculus); assay: PROTAC activity at VHL/wildtype LRRK2 in MEF cells assessed as induction of LRRK2 degradation by measuring half-life at 300 nM incubated for 48 hrs by Western blot analysis; type: cell-based
[9] = target: Protein cereblon/Leucine-rich repeat serine/threonine-protein kinase 2 (Homo sapiens, UniProt Q5S007+Q96SW2); assay: PROTAC activity at CRBN/LRRK2 (unknown origin); type: protein assay

T1 sequence (P40337 whole entry, looked up): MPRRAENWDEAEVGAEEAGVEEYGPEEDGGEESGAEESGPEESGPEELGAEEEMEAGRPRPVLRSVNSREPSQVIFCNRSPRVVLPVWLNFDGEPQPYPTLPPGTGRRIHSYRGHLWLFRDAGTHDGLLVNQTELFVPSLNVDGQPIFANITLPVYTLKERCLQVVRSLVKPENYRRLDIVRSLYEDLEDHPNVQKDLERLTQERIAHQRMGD
T1 sequence (Q15369 whole entry, looked up): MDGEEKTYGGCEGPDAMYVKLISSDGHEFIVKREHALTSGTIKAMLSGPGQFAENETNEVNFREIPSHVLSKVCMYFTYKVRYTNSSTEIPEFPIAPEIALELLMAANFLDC
T1 sequence (Q15370 whole entry, looked up): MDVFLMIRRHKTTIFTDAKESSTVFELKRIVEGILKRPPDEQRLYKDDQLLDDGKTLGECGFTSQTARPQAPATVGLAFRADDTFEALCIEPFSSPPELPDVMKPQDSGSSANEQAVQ
T2 sequence (P40337 whole entry, looked up): as the sequence (P40337 whole entry, looked up) above
T3 sequence (P40338 whole entry, looked up): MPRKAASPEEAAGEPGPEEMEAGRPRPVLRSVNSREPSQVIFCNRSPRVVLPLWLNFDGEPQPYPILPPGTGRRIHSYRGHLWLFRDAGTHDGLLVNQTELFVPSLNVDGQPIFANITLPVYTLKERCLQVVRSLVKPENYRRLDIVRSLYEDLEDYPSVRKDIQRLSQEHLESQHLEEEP
T3 sequence (Q5S006 whole entry, looked up): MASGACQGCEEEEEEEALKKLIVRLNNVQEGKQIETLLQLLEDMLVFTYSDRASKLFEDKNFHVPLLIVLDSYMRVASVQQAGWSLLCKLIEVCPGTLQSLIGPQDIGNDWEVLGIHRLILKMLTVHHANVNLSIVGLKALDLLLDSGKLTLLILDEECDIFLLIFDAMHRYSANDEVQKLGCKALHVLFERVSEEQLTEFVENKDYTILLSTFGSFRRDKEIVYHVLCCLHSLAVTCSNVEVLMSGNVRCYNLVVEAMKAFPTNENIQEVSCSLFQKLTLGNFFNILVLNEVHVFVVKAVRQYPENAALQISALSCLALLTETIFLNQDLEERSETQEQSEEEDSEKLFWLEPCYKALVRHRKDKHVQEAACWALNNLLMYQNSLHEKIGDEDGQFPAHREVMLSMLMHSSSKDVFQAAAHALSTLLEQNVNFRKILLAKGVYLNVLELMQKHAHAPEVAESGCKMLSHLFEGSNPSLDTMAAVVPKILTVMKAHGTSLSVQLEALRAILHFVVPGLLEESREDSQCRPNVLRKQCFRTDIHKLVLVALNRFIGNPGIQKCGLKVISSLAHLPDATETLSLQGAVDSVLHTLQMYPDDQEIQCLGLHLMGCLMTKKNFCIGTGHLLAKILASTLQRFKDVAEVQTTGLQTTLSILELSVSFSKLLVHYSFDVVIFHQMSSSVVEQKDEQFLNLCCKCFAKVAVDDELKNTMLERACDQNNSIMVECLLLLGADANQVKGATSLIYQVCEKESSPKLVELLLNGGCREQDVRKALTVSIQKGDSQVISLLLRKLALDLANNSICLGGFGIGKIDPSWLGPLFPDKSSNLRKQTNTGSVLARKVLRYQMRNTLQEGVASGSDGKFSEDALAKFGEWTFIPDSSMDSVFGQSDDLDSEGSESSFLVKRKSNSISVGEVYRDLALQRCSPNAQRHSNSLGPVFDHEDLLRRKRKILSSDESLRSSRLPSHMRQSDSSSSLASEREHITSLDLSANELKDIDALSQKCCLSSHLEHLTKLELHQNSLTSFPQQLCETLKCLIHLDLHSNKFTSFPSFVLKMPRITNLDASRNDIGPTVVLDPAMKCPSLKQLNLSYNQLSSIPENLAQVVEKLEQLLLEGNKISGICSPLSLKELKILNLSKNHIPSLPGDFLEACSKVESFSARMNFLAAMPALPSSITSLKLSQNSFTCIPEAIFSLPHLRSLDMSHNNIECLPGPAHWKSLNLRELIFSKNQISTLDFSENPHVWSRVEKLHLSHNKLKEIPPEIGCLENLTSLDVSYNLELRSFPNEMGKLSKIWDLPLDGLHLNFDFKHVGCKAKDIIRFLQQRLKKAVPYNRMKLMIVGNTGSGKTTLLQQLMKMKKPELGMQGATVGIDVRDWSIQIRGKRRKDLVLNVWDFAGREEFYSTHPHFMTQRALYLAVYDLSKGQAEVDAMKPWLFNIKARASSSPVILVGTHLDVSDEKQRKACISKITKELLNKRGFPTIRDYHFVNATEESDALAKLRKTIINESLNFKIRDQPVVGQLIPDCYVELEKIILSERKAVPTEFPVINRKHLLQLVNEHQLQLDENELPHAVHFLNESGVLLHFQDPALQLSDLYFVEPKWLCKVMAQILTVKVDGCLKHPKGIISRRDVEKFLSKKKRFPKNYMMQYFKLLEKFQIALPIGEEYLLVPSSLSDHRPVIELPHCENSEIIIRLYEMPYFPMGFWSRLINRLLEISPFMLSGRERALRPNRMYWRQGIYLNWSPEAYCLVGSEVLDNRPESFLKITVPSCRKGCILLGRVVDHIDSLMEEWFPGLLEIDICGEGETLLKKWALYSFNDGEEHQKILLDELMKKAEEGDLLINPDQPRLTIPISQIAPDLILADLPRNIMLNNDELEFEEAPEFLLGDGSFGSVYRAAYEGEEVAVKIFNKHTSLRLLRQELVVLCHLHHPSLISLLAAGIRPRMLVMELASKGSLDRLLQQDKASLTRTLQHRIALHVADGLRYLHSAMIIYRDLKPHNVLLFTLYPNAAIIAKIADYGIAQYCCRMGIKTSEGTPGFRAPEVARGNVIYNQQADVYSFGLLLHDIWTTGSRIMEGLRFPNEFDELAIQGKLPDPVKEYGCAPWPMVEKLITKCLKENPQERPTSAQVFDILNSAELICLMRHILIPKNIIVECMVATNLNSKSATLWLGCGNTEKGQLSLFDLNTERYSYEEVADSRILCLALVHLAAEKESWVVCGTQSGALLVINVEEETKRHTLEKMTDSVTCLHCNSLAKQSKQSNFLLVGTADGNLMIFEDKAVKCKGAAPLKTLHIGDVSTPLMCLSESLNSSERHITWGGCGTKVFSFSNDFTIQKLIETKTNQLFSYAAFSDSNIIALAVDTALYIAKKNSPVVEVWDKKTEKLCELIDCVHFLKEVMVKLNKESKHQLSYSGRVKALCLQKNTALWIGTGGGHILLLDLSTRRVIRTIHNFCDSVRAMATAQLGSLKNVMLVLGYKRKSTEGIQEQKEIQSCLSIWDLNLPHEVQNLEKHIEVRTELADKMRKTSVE

Cc1ncsc1-c1ccc(CNC(=O)[C@@H]2C[C@@H](O)CN2C(=O)[C@@H](NC(=O)C2(F)CC2)C(C)(C)SC[C@H]2CC[C@@H](CN3CCOCC3)CC2)cc1
TdeltaS [1]: -1.31 kcal/mol
deltaG [2]: -9.25 kcal/mol
pKd [3]: 6.78
pKd [4]: 6.45
deltaH [5]: -7.96 kcal/mol

CSC(C)(C)[C@H](NC(=O)C1(F)CC1)C(=O)N1C[C@H](O)C[C@H]1C(=O)NCc1ccc(-c2scnc2C)cc1
pKd [4]: 6.39

CNc1nc(Nc2ccc(C(=O)N3CCN(C[C@H]4CC[C@@H](CSC(C)(C)[C@H](NC(=O)C5(F)CC5)C(=O)N5C[C@H](O)C[C@H]5C(=O)NCc5ccc(-c6scnc6C)cc5)CC4)CC3)cc2OC)ncc1Cl
Activity (HEK293): 1.4
pKd [6]: 6.80
Emax [7]: 59%
T1/2 [8]: 2.7 h
pKd [4]: 6.49

COc1ccc(C(=O)N2CCN(C[C@H]3CC[C@@H](CSC(C)(C)[C@H](NC(=O)C4(F)CC4)C(=O)N4C[C@H](O)C[C@H]4C(=O)NCc4ccc(-c5scnc5C)cc4)CC3)CC2)cc1
pKd [4]: 6.59

CC1(Oc2ccc3[nH]nc(-c4cc(N5CCN(C[C@H]6CC[C@@H](CN7CCN(c8ccc9c(c8F)CN(C8CCC(=O)NC8=O)C9=O)CC7)CC6)CC5)ncn4)c3c2)CC1 (stereo partly specified)
DC50 [9]: < 10 nM

Cc1ncsc1-c1ccc(CNC(=O)[C@@H]2C[C@@H](O)CN2C(=O)[C@@H](NC(=O)C2(F)CC2)C(C)(C)SC[C@H]2CC[C@@H](CN(C)C)CC2)cc1
pKd [4]: 6.50

COc1ccc(C(=O)N2CCN(C[C@H]3CC[C@H](CSC(C)(C)[C@H](NC(=O)C4(F)CC4)C(=O)N4C[C@H](O)C[C@H]4C(=O)NCc4ccc(-c5scnc5C)cc4)CC3)CC2)cc1
pKd [4]: 6.23

Cc1ncsc1-c1ccc(CNC(=O)[C@@H]2C[C@@H](O)CN2C(=O)[C@@H](NC(=O)C2(F)CC2)C(C)(C)SC[C@H]2CC[C@H](CN3CCOCC3)CC2)cc1
TdeltaS [1]: -1.77 kcal/mol
deltaG [2]: -8.75 kcal/mol
pKd [3]: 6.40
pKd [4]: 6.27
deltaH [5]: -6.98 kcal/mol

CNc1nc(Nc2ccc(C(=O)N3CCN(C[C@H]4CC[C@H](CSC(C)(C)[C@H](NC(=O)C5(F)CC5)C(=O)N5C[C@H](O)C[C@H]5C(=O)NCc5ccc(-c6scnc6C)cc5)CC4)CC3)cc2OC)ncc1Cl
Activity (HEK293): 5.7
pKd [6]: < 5.63
Emax [7]: 82%
T1/2 [8]: 1.2 h
pKd [4]: < 6.09

Cc1ncsc1-c1ccc(CNC(=O)[C@@H]2C[C@@H](O)CN2C(=O)[C@@H](NC(=O)C2(F)CC2)C(C)(C)SC[C@H]2CC[C@H](CN(C)C)CC2)cc1
pKd [4]: 6.29
